What follows are compounds tested against T1, human MCH-1 receptor (Homo sapiens, UniProt Q99705) (assay: Ca2+ mobilization experiment for the MCH-1 receptor (FLIPR), inhibition of MCH-induced Ca2+ mobilization). Conditions: CHO cells stably expressing human MCH-1 receptor, inhibition of MCH-induced Ca2+ response, read-out: MCH-1 pIC50 (converted).
T1 construct: expressed in transfected cells
T1 sequence (Q99705 whole entry): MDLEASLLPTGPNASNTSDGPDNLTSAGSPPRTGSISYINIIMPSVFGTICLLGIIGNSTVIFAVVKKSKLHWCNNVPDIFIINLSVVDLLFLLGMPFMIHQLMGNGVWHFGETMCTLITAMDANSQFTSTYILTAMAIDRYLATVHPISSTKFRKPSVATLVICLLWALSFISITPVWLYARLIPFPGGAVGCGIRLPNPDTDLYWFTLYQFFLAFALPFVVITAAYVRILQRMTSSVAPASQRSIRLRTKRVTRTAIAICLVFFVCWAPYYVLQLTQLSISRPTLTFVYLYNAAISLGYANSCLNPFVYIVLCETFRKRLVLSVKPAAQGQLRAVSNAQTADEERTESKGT
Format: cell-based
Procedure: The interaction of the compounds of Formula (I) with MCH-1 receptors was assessed in in vitro transient calcium (Ca^2+) mobilization assays in the fluorimetric imaging plate reader (FLIPR) format (Sullivan et al. 1999, Methods Mol Biol 114:125-133). In general, the natural agonist (MCH) is incubated with cells expressing the MCH-1 receptor, which elicits a concentration-dependent transient mobilization of Ca^2+ from internal stores. The interaction of the test compounds with the receptor is assessed in competition experiments. Various concentrations of the test compound are added to the incubation mixture containing the receptor-expressing cells and a submaximal concentration of MCH. The test compound in proportion to its antagonist potency and its concentration inhibits MCH-induced Ca^2+ mobilization.
Chinese Hamster ovary cells (CHO) stably expressing the human MCH-1 receptor are grown in a 1:1 mixture of Dulbecco's Modified Eagles Medium (DMEM) and HAM's F12 medium including Glutamax™ (Invitrogen), supplemented with 10% heat-inactivated fetal bovine serum and 400 μg/ml geneticin.
Twenty-four hours before the experiment, MCH-1 receptor-expressing CHO cells are seeded in 20 μl (5,000 cells per well) into 384-well black wall, clear bottom microtiter plates (Costar). On the day of the experiment, 20 μl per well calcium assay kit containing 10 mM probenicide (Molecular Devices) is added. Cells are loaded for 90 min at 37° C. and 5% CO2 in a cell culture incubator. After loading, 20 μl of serial dilutions of the test compound are added and cells are further incubated for 20 min at room temperature in the dark. After 20 min, 20 μl of a submaximal MCH concentration is added and changes in intracellular calcium are recorded directly in a FLIPR III apparatus (Molecular devices).
Data from assays in the presence of compound were calculated as a percentage of total Ca^2+-responses measured in the absence of test compound. Inhibition curves, plotting percent of total Ca^2+-responses versus the log value of the concentration of the test compound, were automatically generated, and sigmoidal inhibition curves were fitted using non-linear regression. The pIC50 values of test compounds were derived from individual curves.
`COc1cc(-n2ccnc(NCCc3ccccc3)c2=O)ccc1OCCN1CC[C@@H](F)C1` [3-47] gave an IC50 of 63.1 nM. With `COc1cc(-n2ccnc(NCCc3ccccc3)c2=O)ccc1OCCN1CCCC1C(N)=O` (stereo not drawn) [3-48] the IC50 was 79.4 nM. `COc1cc(-n2ccnc(NCCc3ccccc3)c2=O)ccc1OCCN1CCCC(CO)C1` (stereo not drawn) [3-49] gave an IC50 of 31.6 nM. `COc1cc(-n2ccnc(NCCc3ccccc3)c2=O)ccc1OCCN1CCC(F)CC1` [3-50] was tested, and the IC50 was 20 nM. With `COc1cc(-n2ccnc(NCCc3ccccc3)c2=O)ccc1OCCN1CCC(C#N)CC1` [3-51] the IC50 was 39.8 nM. For `COc1cc(-n2ccnc(NCCc3ccccc3)c2=O)ccc1OCCN1CCCC(C(N)=O)C1` (stereo not drawn) [3-52], the IC50 was 39.8 nM. With `COc1cc(-n2ccnc(NCCc3ccccc3)c2=O)ccc1OCCN1CCC(C(N)=O)CC1` [3-53] the IC50 was 50.1 nM. `COc1cc(-n2ccnc(NCCc3ccccc3)c2=O)ccc1OCCN1CCC(C(=O)NC2CC2)CC1` [3-54] was tested, and the IC50 was 20 nM. `COc1cc(-n2ccnc(NCCc3ccccc3)c2=O)ccc1OCCN1CCC(C(=O)N2CCCC2)CC1` [3-55] gave an IC50 of 25.1 nM. With `COc1cc(-n2ccnc(NCCc3ccccc3)c2=O)ccc1OCCN1CCC(F)(F)CC1` [3-56] the IC50 was 39.8 nM. For `COc1cc(-n2ccnc(NCCc3ccccc3)c2=O)ccc1OCCN1[C@H](C)CCC[C@@H]1C` [3-57], the IC50 was 31.6 nM. For `COc1cc(-n2ccnc(NCCc3ccccc3)c2=O)ccc1OCCN1CCC2(CC1)OCCO2` [3-58], the IC50 was 50.1 nM. In the case of `COc1cc(-n2ccnc(NCCc3ccccc3)c2=O)ccc1OCCN1CCOCC1` [3-59], the IC50 is reported as 50.1 nM. Work on `COc1cc(-n2ccnc(NCCc3ccccc3)c2=O)ccc1OCCN1CCOC[C@@H]1C` [3-60] yielded an IC50 of 63.1 nM. Work on `COc1cc(-n2ccnc(NCCc3ccccc3)c2=O)ccc1OCCN1CCOC[C@H]1C` [3-61] yielded an IC50 of 79.4 nM. Work on `COc1cc(-n2ccnc(NCCc3ccccc3)c2=O)ccc1OCCN1C(C)COCC1C` (stereo not drawn) [3-62] yielded an IC50 of 39.8 nM. With `COc1cc(-n2ccnc(NCCc3ccccc3)c2=O)ccc1OCCN1CC(C)OC(C)C1` (stereo not drawn) [3-63] the IC50 was 158 nM. `COc1cc(-n2ccnc(NCCc3ccccc3)c2=O)ccc1OCCN1CCOC(CO)C1` (stereo not drawn) [3-64] showed an IC50 of 100 nM. `COc1cc(-n2ccnc(NCCc3ccccc3)c2=O)ccc1OCCN1CCNC(=O)C1` [3-65] gave an IC50 of 158 nM. In the case of `COc1cc(-n2ccnc(NCCc3ccccc3)c2=O)ccc1OCCCNC(C)=O` [3-66], the IC50 is reported as 126 nM. `COc1cc(-n2ccnc(NCCc3ccccc3)c2=O)ccc1OCCCNC(=O)C(C)C` [3-67] gave an IC50 of 126 nM. `COc1cc(-n2ccnc(NCCc3ccccc3)c2=O)ccc1OCCCN(C)C1CC1` [3-68] showed an IC50 of 39.8 nM. `COc1cc(-n2ccnc(NCCc3ccccc3)c2=O)ccc1OCCCNC(=O)C1CC1` [3-69] gave an IC50 of 126 nM. `COc1cc(-n2ccnc(NCCc3ccccc3)c2=O)ccc1OCCCN1CCC(O)C1` (stereo not drawn) [3-70] showed an IC50 of 50.1 nM. Work on `COc1cc(-n2ccnc(NCCc3ccccc3)c2=O)ccc1OCCCN1CCCC(CO)C1` (stereo not drawn) [3-71] yielded an IC50 of 39.8 nM. For `COc1cc(-n2ccnc(NCCc3ccccc3)c2=O)ccc1OCCCN1CCC(F)CC1` [3-72], the IC50 was 25.1 nM. In the case of `COc1cc(-n2ccnc(NCCc3ccccc3)c2=O)ccc1OCCCN1CCC(C#N)CC1` [3-73], the IC50 is reported as 39.8 nM. In the case of `COc1cc(-n2ccnc(NCCc3ccccc3)c2=O)ccc1OCCCN1CCC(F)(F)CC1` [3-74], the IC50 is reported as 31.6 nM. For `O=c1c(NCCc2ccccc2)nccn1-c1ccc(N2CCNCC2)c(Cl)c1` [3-77], the IC50 was 100 nM. For `CN1CCN(c2ccc(-n3ccnc(NCCc4ccccc4)c3=O)cc2Cl)CC1` [3-78], the IC50 was 50.1 nM. With `O=c1c(NCCc2ccccc2)nccn1-c1ccc(N2CCN(CCO)CC2)c(Cl)c1` [3-79] the IC50 was 63.1 nM. `COCCN1CCN(c2ccc(-n3ccnc(NCCc4ccccc4)c3=O)cc2Cl)CC1` [3-80] gave an IC50 of 79.4 nM. `CN1CCN(CCOc2ccc(-n3ccnc(NCCc4ccccc4)c3=O)cc2Cl)CC1` [3-82] showed an IC50 of 50.1 nM. `CN(C)CCN1CCc2cc(-n3ccnc(NCCOc4ccccc4)c3=O)ccc21` [3-84] showed an IC50 of 79.4 nM. For `O=c1c(NCCOc2ccccc2)nccn1-c1ccc2c(cnn2CCN2CCCC2)c1` [3-85], the IC50 was 398 nM. With `O=c1c(NCCc2ccccc2)nccn1-c1ccc2nc(N3CCCCC3)ccc2c1` [3-87] the IC50 was 200 nM.

From patent publication US8329704B2, “Substituted pyrazinone derivatives for use in MCH-1 mediated diseases” (Janssen Pharmaceutica, N.V., priority 2005, dated 2012)
